Results published in PubChem BioAssay AID248 (DTP/NCI, 2004).
Where “and” joins values, the source holds several entries; their conditions need not be identical. Identical values can stand only once. Toxic doses and inconclusive results are not listed. Cut-off read from the data, not from the text of the source: active = T/C of 150% or more; inactive = T/C below 125%.

System: L1210 leukemia ip in BDF1 mice, survival T/C
Experiment: NCI In Vivo Anticancer Drug Screen. Data for tumor model L1210 Leukemia (intraperitoneal) in B6D2F1 (BDF1) mice
Details: endpoint: mean survival time, higher = longer survival
How it was run: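 Value reflects the ratio of survival in compound-treated mice to survival in vehicle-treated controls, with both groups carrying the same transplanted tumor.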

[1] = dose: 25.0 mg/kg/injection, schedule: Q01DX009 (ip), vehicle: saline
[2] = dose: 50.0 mg/kg/injection, schedule: Q01DX009 (ip), vehicle: saline
[3] = dose: 100.0 mg/kg/injection, schedule: Q01DX009 (ip), vehicle: saline
[4] = dose: 100.0 mg/kg/injection, schedule: Q04DX002 (ip), vehicle: Klucel (hydroxypropylcellulose) (HPC)
[5] = dose: 200.0 mg/kg/injection, schedule: Q04DX002 (ip), vehicle: Klucel (hydroxypropylcellulose) (HPC)
[6] = dose: 400.0 mg/kg/injection, schedule: Q04DX002 (ip), vehicle: Klucel (hydroxypropylcellulose) (HPC)
[7] = dose: 100.0 mg/kg/injection, schedule: Q04DX003 (ip), vehicle: saline with Tween-80
[8] = dose: 200.0 mg/kg/injection, schedule: Q04DX003 (ip), vehicle: saline with Tween-80
[9] = dose: 400.0 mg/kg/injection, schedule: Q04DX003 (ip), vehicle: saline with Tween-80
[10] = dose: 50.0 mg/kg/injection, schedule: Q01DX001 (ip), vehicle: Klucel (hydroxypropylcellulose) (HPC)
[11] = dose: 100.0 mg/kg/injection, schedule: Q01DX001 (ip), vehicle: Klucel (hydroxypropylcellulose) (HPC)
[12] = dose: 200.0 mg/kg/injection, schedule: Q01DX001 (ip), vehicle: Klucel (hydroxypropylcellulose) (HPC)
[13] = dose: 100.0 mg/kg/injection, schedule: Q01DX001 (ip), vehicle: saline with Tween-80
[14] = dose: 100.0 mg/kg/injection, schedule: Q01DX009 (ip), vehicle: saline with Tween-80
[15] = dose: 200.0 mg/kg/injection, schedule: Q01DX009 (ip), vehicle: saline with Tween-80
[16] = dose: 100.0 mg/kg/injection, schedule: Q01DX009 (ip), vehicle: Klucel (hydroxypropylcellulose) (HPC)
[17] = dose: 200.0 mg/kg/injection, schedule: Q01DX009 (ip), vehicle: Klucel (hydroxypropylcellulose) (HPC)
[18] = dose: 400.0 mg/kg/injection, schedule: Q01DX009 (ip), vehicle: Klucel (hydroxypropylcellulose) (HPC)
[19] = dose: 200.0 mg/kg/injection, schedule: Q01DX009 (ip), vehicle: saline
[20] = dose: 50.0 mg/kg/injection, schedule: Q01DX009 (ip), vehicle: saline with Tween-80
[21] = dose: 100.0 mg/kg/injection, schedule: Q01DX001 (ip), vehicle: saline
[22] = dose: 100.0 mg/kg/injection, schedule: Q04DX003 (ip), vehicle: saline
[23] = dose: 200.0 mg/kg/injection, schedule: Q04DX003 (ip), vehicle: saline
[24] = dose: 400.0 mg/kg/injection, schedule: Q04DX003 (ip), vehicle: saline
[25] = dose: 50.0 mg/kg/injection, schedule: Q01DX009 (ip), vehicle: Klucel (hydroxypropylcellulose) (HPC)
[26] = dose: 100.0 mg/kg/injection, schedule: Q04DX003 (ip), vehicle: Klucel (hydroxypropylcellulose) (HPC)
[27] = dose: 200.0 mg/kg/injection, schedule: Q04DX003 (ip), vehicle: Klucel (hydroxypropylcellulose) (HPC)

Measured: T/C

CCOC(=O)C(C(=O)OCC)C1c2ccccc2C(=O)N(CCN(C)C)c2ccccc21 (stereo unspecified)
inactive: [1] 96 % of control | [2] 99 % of control | [3] 98 % of control

O=C(Nc1ccccc1)Nc1ccccc1Cl
inactive: [4] 110 % of control | [5] 93 % of control | [6] 107 % of control

c1ccc([CH2][Ge]([c]2ccccc2)([c]2ccccc2)[c]2ccccc2)cc1
inactive: dose: 25.6 mg/kg/injection, schedule: Q04DX002 (ip), vehicle: saline with Tween-80 89 % of control | dose: 64.0 mg/kg/injection, schedule: Q04DX002 (ip), vehicle: saline with Tween-80 93 % of control | [7] 104 % of control | dose: 160.0 mg/kg/injection, schedule: Q04DX002 (ip), vehicle: saline with Tween-80 89 % of control | [8] 96 % of control | dose: 400.0 mg/kg/injection, schedule: Q04DX002 (ip), vehicle: saline with Tween-80 89 % of control | [9] 102 % of control

O=C1C2CCN(CC2)C1CNC1(c2ccccc2)CCCCC1 (stereo unspecified)
inactive: [10] 98 % of control | [11] 92 % of control | [12] 92 % of control

[O]=[V]([OH])([OH])[OH]
inactive: dose: 2.0 mg/kg/injection, schedule: Q01DX015 (ip), vehicle: saline 101 % of control | dose: 4.0 mg/kg/injection, schedule: Q01DX015 (ip), vehicle: saline 103 % of control | dose: 8.0 mg/kg/injection, schedule: Q01DX015 (ip), vehicle: saline 103 % of control | dose: 12.5 mg/kg/injection, schedule: Q01DX001 (ip), vehicle: saline 113 % of control | dose: 16.0 mg/kg/injection, schedule: Q01DX015 (ip), vehicle: saline 108 % of control | dose: 25.0 mg/kg/injection, schedule: Q01DX001 (ip), vehicle: saline 96 % of control | dose: 32.0 mg/kg/injection, schedule: Q01DX015 (ip), vehicle: saline 103 % of control | dose: 50.0 mg/kg/injection, schedule: Q01DX001 (ip), vehicle: saline 98 % of control | dose: 64.0 mg/kg/injection, schedule: Q01DX015 (ip), vehicle: saline 88 % of control

NC(=O)c1c(F)c(F)c(N)c(F)c1F
inactive: [4] 96 % of control | [5] 93 % of control | [6] 118 % of control

Cc1ccc(S(=O)(=O)N(CC(=O)O)Cc2ccccc2)cc1
inactive: dose: 25.0 mg/kg/injection, schedule: Q01DX009 (ip), vehicle: sodium bicarbonate 104 % of control | dose: 50.0 mg/kg/injection, schedule: Q01DX009 (ip), vehicle: sodium bicarbonate 100 % of control | [13] 100 % of control | [14] 104 % of control | dose: 100.0 mg/kg/injection, schedule: Q01DX009 (ip), vehicle: sodium bicarbonate 98 % of control | dose: 200.0 mg/kg/injection, schedule: Q01DX001 (ip), vehicle: saline with Tween-80 97 % of control | [15] 110 % of control | dose: 200.0 mg/kg/injection, schedule: Q01DX009 (ip), vehicle: sodium bicarbonate 98 % of control | dose: 400.0 mg/kg/injection, schedule: Q01DX001 (ip), vehicle: saline with Tween-80 95 % of control | dose: 400.0 mg/kg/injection, schedule: Q01DX009 (ip), vehicle: saline with Tween-80 95 % of control and 112 % of control | dose: 400.0 mg/kg/injection, schedule: Q01DX009 (ip), vehicle: sodium bicarbonate 97 % of control | dose: 800.0 mg/kg/injection, schedule: Q01DX009 (ip), vehicle: saline with Tween-80 92 % of control | dose: 1600.0 mg/kg/injection, schedule: Q01DX009 (ip), vehicle: saline with Tween-80 117 % of control

O=C(Nc1nccs1)Nc1ccc(Cl)cc1[N+](=O)[O-]
inactive: [16] 105 % of control | [17] 100 % of control | [18] 102 % of control

Cc1ccc(C(O)C(=O)O)c(C)c1 (stereo unspecified)
inactive: dose: 100.0 mg/kg/injection, schedule: Q04DX002 (ip), vehicle: saline with Tween-80 101 % of control | dose: 200.0 mg/kg/injection, schedule: Q04DX002 (ip), vehicle: saline with Tween-80 89 % of control

COC(=O)C1C(O)C(C)C(=O)C(C)/C=C\C=C(C)C(=O)Nc2c(C)c(OC(C)=O)c3c(c2O)C(=O)C(C)=C2OCOC(=C23)C(C)=CC(C)(O)C(O)C(C)C1O (stereo unspecified)
inactive: [1] 96 % of control | [2] 98 % of control | [3] 96 % of control | [19] 98 % of control

Cc1nc(N(C)C)c2cnn(-c3ccccc3)c2n1
inactive: [20] 106 % of control | dose: 100.0 mg/kg/injection, schedule: Q01DX001 (ip), vehicle: acetone 101 % of control | [14] 87 % of control | dose: 200.0 mg/kg/injection, schedule: Q01DX001 (ip), vehicle: acetone 97 % of control

COC(=O)C1OC(CO)C(O)C1O (stereo unspecified)
inactive: [21] 105 % of control | [22] 110 % of control | dose: 200.0 mg/kg/injection, schedule: Q01DX001 (ip), vehicle: saline 113 % of control | [23] 107 % of control | dose: 400.0 mg/kg/injection, schedule: Q01DX001 (ip), vehicle: saline 97 % of control | [24] 110 % of control

O=C(O)CC(CS(=O)O)C(=O)O (stereo unspecified)
inactive: [13] 91 % of control

COc1ccc(/C(=N/Nc2ccccc2)C(C)C(O)(C(F)(F)F)C(F)(F)F)cc1 (stereo unspecified)
inactive: [25] 91 % of control | [16] 92 % of control | [26] 98 % of control | [17] 89 % of control | [27] 90 % of control

CCCC(C)Cc1ccc(C(C)=O)cc1 (stereo unspecified)
inactive: [25] 101 % of control | [16] 106 % of control | [26] 104 % of control | [17] 89 % of control | [27] 105 % of control | dose: 400.0 mg/kg/injection, schedule: Q04DX003 (ip), vehicle: Klucel (hydroxypropylcellulose) (HPC) 105 % of control

CC1(O)c2cccc3c2C2(O)c4c1cccc4C(C)(O)c1cccc(c12)C3(C)O (stereo unspecified)
inactive: [14] 106 % of control | [7] 103 % of control and 108 % of control | [15] 105 % of control | [8] 114 % of control and 110 % of control | [9] 95 % of control and 101 % of control

CCOc1c(C(=O)O)cnc2ccccc12
inactive: dose: 75.0 mg/kg/injection, schedule: Q01DX001 (ip), vehicle: saline 100 % of control

CCOC(=O)c1ccccc1N(O)C(=O)NC12CC3CC(CC(C3)C1)C2
inactive: [7] 94 % of control | [8] 94 % of control | [9] 94 % of control

COc1ccc(S(=O)(=O)Nc2cccc(C(F)(F)F)c2)cc1
inactive: [16] 102 % of control | [17] 102 % of control | [18] 100 % of control

COc1cc([N+](=O)[O-])c(C)cc1NCc1ccc(OC)c(OC)c1
inactive: [2] 96 % of control | [3] 94 % of control | [22] 97 % of control | [19] 91 % of control | [23] 98 % of control | dose: 400.0 mg/kg/injection, schedule: Q01DX009 (ip), vehicle: saline 94 % of control | [24] 89 % of control

O=c1[nH]c(C(F)(F)F)c(CCCCc2ccccc2)c(=O)[nH]1
inactive: [10] 105 % of control | [11] 94 % of control | [12] 90 % of control

CCCCC(C)NC1=C(Cl)C(=O)c2ccccc2C1=O (stereo unspecified)
inactive: dose: 25.0 mg/kg/injection, schedule: Q01DX009 (ip), vehicle: saline with Tween-80 101 % of control | [20] 93 % of control | [14] 87 % of control

CC(C)(C)C1CCC(=N[N+](C)(C)C)CC1 (stereo unspecified)
inactive: [21] 104 % of control

OC1CCC(O)C2CCC1S2 (stereo unspecified)
inactive: dose: 100.0 mg/kg/injection, schedule: Q01DX001 (ip), vehicle: steriod suspending solution 87 % of control | dose: 200.0 mg/kg/injection, schedule: Q01DX001 (ip), vehicle: steriod suspending solution 92 % of control | dose: 400.0 mg/kg/injection, schedule: Q01DX001 (ip), vehicle: steriod suspending solution 103 % of control
